The values that follow come from BindingDB's records for patent US20230295157 (Janssen Pharmaceutica, 2023).

Each structure is given as a SMILES string.

One assay has as its target Coagulation factor XI (Homo sapiens, UniProt P03951). In words: Factor XIa Inhibition Assay Utilizing a Fluorophore-Quencher Pair Peptide Substrate. From the text:
A fluorescence intensity (FLINT) based assay was used to monitor inhibition of Factor XIa. The peptide substrate, 5Fam-[…]-K5Tamra (purchased from New England Peptide) was chosen based on the FXI sequence. Conversion of zymogen FXI to its activated form, FXIa, occurs by proteolytic cleavage by […] at two sites, Arg146 and Arg180. The custom peptide used in this assay was based on the Arg146 cleavage site of FXI. The peptide substrate was designed with a fluorophore-quencher pair, where the fluorescence is quenched until FXIa cleaves the 8-mer peptide after the Arg residue. […] The Factor XIa FLINT assay was used with the following 5Fam-[…]-K5Tamra assay buffer: 50 mM Tris, pH 7.5, 100 mM NaCl, 5 mM CaCl2), 0.1 mg/mL BSA, 0.03% CHAPS. Assay buffer was prepared by mixing all ingredients fresh. 5Fam-[…]-K5Tamra peptide substrate was first prepared at 10 mM in 100% DMSO, then diluted to 3 mM in 100% DMSO.

Another assay has as its target Plasma kallikrein (Homo sapiens, UniProt P03952). The assay is described as follows: Kallikrein Inhibition Assay Utilizing a Quenched AMC Peptide Substrate. As to the method: A fluorescence intensity (FLINT) based assay was used to monitor inhibition of human plasma kallikrein. The peptide substrate, Z-Gly-Pro-Arg-AMC (Purchased from Bachem; Catalog #I-1150) was chosen based on its relatively low KM for kallikrein which enables running the assay at lower substrate concentrations to control background fluorescence. The kinetic parameters for this substrate were determined by fitting titration data to the Michaelis-Menten equation yielding a KM=40 μM, kcat=0.76 s−1, and kcat/KM=18932 M−1s−1. The Kallikrein FLINT assay was used with the following Z-Gly-Pro-Arg-AMC assay buffer: 50 mM Tris, pH 7.5, 100 mM NaCl, 5 mM CaCl2), 0.1 mg/mL BSA, 0.03% CHAPS. Assay buffer was prepared by mixing all ingredients fresh. 2×Z-Gly-Pro-Arg-AMC peptide substrate was prepared by diluting 10 mM stock into 1×assay buffer for a 100 μM working concentration (50 μM final concentration). The 2×kallikrein stock solution was prepared by diluting 14.76 μM stock in 1×assay buffer for a 4 nM working stock solution (2 nM final concentration).

Sequence of Coagulation factor XI (P03951 19-387 limits assumed): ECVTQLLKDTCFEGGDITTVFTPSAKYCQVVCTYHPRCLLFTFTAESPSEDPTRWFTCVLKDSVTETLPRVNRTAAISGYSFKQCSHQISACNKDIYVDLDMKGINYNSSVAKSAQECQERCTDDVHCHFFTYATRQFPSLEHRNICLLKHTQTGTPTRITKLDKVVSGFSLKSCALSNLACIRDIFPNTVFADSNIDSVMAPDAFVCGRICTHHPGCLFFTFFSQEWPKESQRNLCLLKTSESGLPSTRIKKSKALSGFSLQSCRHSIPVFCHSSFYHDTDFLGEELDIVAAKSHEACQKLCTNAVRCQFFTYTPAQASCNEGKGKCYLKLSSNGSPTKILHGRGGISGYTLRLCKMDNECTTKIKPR
Sequence of Coagulation factor XI (P03951 388-625 limits assumed): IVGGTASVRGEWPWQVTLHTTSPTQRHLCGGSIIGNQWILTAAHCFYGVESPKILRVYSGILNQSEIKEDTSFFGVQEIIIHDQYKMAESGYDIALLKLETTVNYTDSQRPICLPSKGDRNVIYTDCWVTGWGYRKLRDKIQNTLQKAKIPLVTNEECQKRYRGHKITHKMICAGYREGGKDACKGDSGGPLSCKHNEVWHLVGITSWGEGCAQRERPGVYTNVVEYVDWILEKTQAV
Sequence of Plasma kallikrein (P03952 20-390 limits assumed): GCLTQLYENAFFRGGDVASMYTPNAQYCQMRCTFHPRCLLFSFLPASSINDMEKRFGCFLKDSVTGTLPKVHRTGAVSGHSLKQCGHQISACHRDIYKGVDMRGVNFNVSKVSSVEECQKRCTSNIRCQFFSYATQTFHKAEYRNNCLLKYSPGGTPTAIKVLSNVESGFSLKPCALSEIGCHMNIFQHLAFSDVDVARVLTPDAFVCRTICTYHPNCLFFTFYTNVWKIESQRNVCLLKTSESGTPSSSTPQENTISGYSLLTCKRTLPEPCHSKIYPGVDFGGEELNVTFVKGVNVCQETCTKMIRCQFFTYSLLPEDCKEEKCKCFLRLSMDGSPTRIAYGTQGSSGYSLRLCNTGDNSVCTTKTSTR
Sequence of Plasma kallikrein (P03952 391-638 limits assumed): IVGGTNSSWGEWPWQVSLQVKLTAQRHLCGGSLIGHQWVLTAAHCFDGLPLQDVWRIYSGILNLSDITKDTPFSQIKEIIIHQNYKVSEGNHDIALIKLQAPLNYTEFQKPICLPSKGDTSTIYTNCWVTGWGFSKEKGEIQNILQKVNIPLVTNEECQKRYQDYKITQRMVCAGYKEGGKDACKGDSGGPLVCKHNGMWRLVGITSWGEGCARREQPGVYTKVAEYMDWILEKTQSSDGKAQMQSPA

What is called IC50 is the concentration that inhibits the measured activity by half. A high value points to lower potency. As to `C[C@H](CO)Oc1nccc(-c2cnc([C@@H]3CC[C@H]4CC(c5c(-n6cnnn6)ccc(Cl)c5F)=CC(=O)N43)[nH]2)c1F` (relative stereo) [US20230295157, Example 169], the IC50 against Coagulation factor XI was 42.3 nM; on Plasma kallikrein it was 40.1 nM.

With `O=C1C=C(c2c(-n3cnnn3)ccc(Cl)c2F)C[C@H]2CC[C@@H](c3nc(-c4csc(CO)n4)c[nH]3)N12` [US20230295157, Example 22], the IC50 against Coagulation factor XI came to 47.8 nM; against Plasma kallikrein it was 103 nM.

Take `NC(=O)c1ccc(-c2cnc([C@@H]3CC[C@@H]4CC(c5c(-n6cnnn6)ccc(Cl)c5F)=CC(=O)N43)[nH]2)cc1F` [US20230295157, Example 197]: the results for the IC50 against Coagulation factor XI and against Plasma kallikrein were 4.1 nM and 6 nM, respectively.
